What was measured:
[1] = target: T1, human kidney renin (Homo sapiens, UniProt P00797); experiment: Human renin enzyme assay with angiotensin I radioimmunoassay; format: biochemical; conditions: angiotensinogen substrate, pH 6.0 maleate buffer, 37° C., 50% reduction in the release of angiotensin I
T1 construct: 0.24 mGU human kidney renin; from tissue; host or cells: human kidney
T1 sequence (P00797 67-406): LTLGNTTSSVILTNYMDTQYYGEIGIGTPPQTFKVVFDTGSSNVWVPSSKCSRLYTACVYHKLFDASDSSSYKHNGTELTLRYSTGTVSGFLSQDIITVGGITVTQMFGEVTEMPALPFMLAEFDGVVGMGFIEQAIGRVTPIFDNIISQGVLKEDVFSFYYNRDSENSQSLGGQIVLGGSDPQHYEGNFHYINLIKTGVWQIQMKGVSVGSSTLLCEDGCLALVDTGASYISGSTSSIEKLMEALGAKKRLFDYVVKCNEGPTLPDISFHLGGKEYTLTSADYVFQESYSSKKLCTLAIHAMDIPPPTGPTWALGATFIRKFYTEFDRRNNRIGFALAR
Method: a. Human Renin Enzyme Assay. The human renin enzyme assay described by Sham et al., J. Med. Chem. 31:284-295 (1988) was carried out by mixing 0.24 mGU human kidney renin, 0.21 αμM of angiotensinogen in 0.135 M, pH 6.0, maleate buffer containing 3 mM EDTA, 1.4 mM PMSF, and 0.44% BSA. The total assay volume was 100 μl. All inhibitors were dissolved in DMSO first and diluted with 0.5% BSA to give the appropriate concentrations for testing. The final DMSO concentration in the assay mixture was kept constant at 1%. […] For assay, 90 μl of the above-mentioned maleate buffer containing the renin and inhibitor was preincubated at 37° C. for 5 min and the reaction was continued for 10 additional min after adding 10 μl of substrate. The reaction was stopped by immersion of all tubes in a dry ice acetone-methanol bath. All samples were thawed to 0.4° C. and an aliquot from each tube was taken for the Angiotensin I RIA assay.
b. Angiotensin I Radioimmunoassay. A 100 μl portions of 5% BSA containing a small aliquot of the above enzyme mixture was mixed with 100 μl of angiotensin I [^125 I] (500 mCi/mg) in 0.1M Tris-acetate buffer, pH 7.4 (one part angiotensin I in 50 parts buffer), and 500 μl of antiserum (the lyophilized powder was reconstituted with 125 ml of 0.1M Tris-acetate buffer, pH 7.4). The mixture was incubated at 4° C. for 18 to 24 h. At the end of the incubation, 1.0 mL of charcoal suspension (600 mg of charcoal in 50 mL of 0.1M Tris-acetate buffer, pH 7.4) was pipetted into each tube. The charcoal suspension was stirred constantly during the transfer. The samples were mixed and then centrifuged at 3000×g for 15 min. The supernatants were transferred into properly numbered tubed for gamma counting.
A reagent blank was carried out with each assay. The blank tube contained 100 μl of 5% bovine serum albumin (BSA), 100 μl of angiotensin I [^125 I], and 500 μl of 0.1M Tris-acetate buffer.
A standard curve was prepared with each set of experiments by mixing various amounts (5 to 0.1 ng/ml) of angiotensin I in 0.1M Tris-acetate buffer containing 5% BSA and the same amounts of ^125 I-angiotensin I and antiserum as for the RIA assay. The tubes containing the standards were treated exactly like those containing the samples. The amount of angiotensin I produced by the enzyme in each sample was calculated using an angiotensin I standard curve.
The whole process of RIA was carried out at 0° to 4° C. to avoid deterioration of antiserum and angiotensin I. Only polystyrene tubes were used. Polystyrene tubes had shown no affinity for antibody under the assay conditions described above.
An IC50 was calculated for each inhibitor tested by conducting the assay in the presence of different concentrations of inhibitor. The inhibitor concentration that caused a 50% reduction in the release of angiotensin I when compared to control (no inhibitor) values was then calculated.

[2] = tested on: Cynomolgus monkeys; experiment: In vivo efficacy: oral administration to Cynomolgus monkeys, blood pressure monitoring; conditions: salt-depleted, furosemide-pretreated male Cynomolgus monkeys; oral gavage 1.0 mg/kg
Method: b. In vivo efficacy: Oral activity of a number of the compounds of the invention was established by administration to Cynomolgus monkeys, a species known to be susceptible to the antihypertensive effect of renin inhibition. Two male monkeys, young adults approximately 3-6 kg at dosing, were tested over a six-week period. The animal room environment and photoperiod were controlled (temperature approximately 24° C., humidity 50±20%, 12 h light, 12 h dark), as was diet (low salt primate chow, plus discretionary supplements of fruit for at least 7 days prior to dosing). A diuretic (furosemide 1 mg/kg) was given daily by intravenous injection for 7 days prior to dosing.
The compounds of the invention were dissolved in 0.02 N HCl and prepared to the appropriate volume with sterile water. The pH of the solutions were adjusted to approximately 4.0 with 0.02 N NaOH. The solutions were then given orally by an oesophageal gavage at a dose level of 1.0 mg/kg, and a dose volume of 2 mL/kg body weight.
Prior to and following dosing, the animals were connected to an ECG and blood pressure monitor. Systolic, diastolic and mean blood pressure as well as heart rate were measured at 30 second intervals and recorded.

[3] = animals; from cited publications; cited from earlier work

| Structure (SMILES) | IC50 [1] [nM] | Reduction in blood pressure [2] | Oral activity [3] |
| --- | --- | --- | --- |
| CC(C)C[C@H](N=[N+]=[N-])[C@H](O)[C@H](CC1CCCCC1)NC(=O)[C@H](Cc1c[nH]cn1)NC(=O)C(CC(=O)N1CCOCC1)Cc1ccccc1 (stereo partly drawn) [VI-6b, (4S, 5R, 6S)-4-Azido-6-[N^α -(2-benzyl-3-(morpholino-N-carbonyl)propionyl)-L-histidyl]amino-7-cyclohexyl-5-hydroxy-2-methylheptane] | 0.64 | – | – |
| CC(C)CC(N=[N+]=[N-])C(O)[C@H](CC(C)C)NC(=O)[C@H](Cc1c[nH]cn1)NC(=O)[C@H](Cc1cccc2ccccc12)NC(=O)OCc1ccccc1 (stereo partly drawn) [Compound I-5b, 4-Azido-6-(S)-[N^α -[N-benzyloxycarbonyl-3-(1-naphthyl)-L-alanyl]-L-histidyl]-amino-2,8-dimethyl-5-nonanol] | 190 | – | – |
| CC(C)C[C@H](N=[N+]=[N-])[C@H](O)[C@H](CC1CCCCC1)NC(=O)[C@H](Cc1c[nH]cn1)NC(=O)/C(=C/c1ccccc1)CC(=O)N1CCOCC1 [VIII-3, (4S, 5R, 6S)-4-Azido-7-cyclohexyl-5-hydroxy-2-methyl-6-[N^α -[(E)-2-[(4-morphorinylcarbonyl)-methyl]cinnamyl]-L-histidyl]aminoheptane] | 0.85 | – | – |
| CC(C)C[C@H](N=[N+]=[N-])[C@H](O)[C@H](CC(C)C)NC(=O)[C@H](Cc1c[nH]cn1)NC(=O)[C@H](Cc1ccccc1)OC(=O)N1CCOCC1 [III-6, (4S, 5R, 6S)-4-Azido-5-hydroxy-2,8-dimethyl-6-[N^α -(2S-(morpholino-N-carbonyloxy)-3-phenylpropionyl)-L-histidyl]aminononane] | 110 | – | – |
| CC(C)C[C@H](N=[N+]=[N-])[C@H](O)[C@H](CC1CCCCC1)NC(=O)[C@H](Cc1c[nH]cn1)NC(=O)[C@H](Cc1ccccc1)CS(=O)(=O)C(C)(C)C [Compound X-2b, (4S, 5R, 6S)-4-Azido-7-cyclohexyl-5-hydroxy-2-methyl-6-[N^α -[(S)-2-benzyl-3-(tert-butylsulfonyl)-pripionyl]-L-histidyl]aminoheptane] | 0.006 | Reduction in blood pressure was seen within approximately 1 to 6 hours | – |
| CC(C)C[C@H](N=[N+]=[N-])[C@H](O)[C@H](CC1CCCCC1)NC(=O)[C@H](Cc1c[nH]cn1)NC(=O)[C@H](Cc1ccccc1)NC(=O)CC(C)(C)N [IX-6] | 5.4 | – | – |
| CC(C)CC(N=[N+]=[N-])C(=O)C(CC1CCCCC1)NC(=O)[C@H](Cc1c[nH]cn1)NC(=O)[C@H](Cc1ccccc1)OC(=O)N1CCOCC1 (stereo partly drawn) [VII-2, 4-Azido-7-cyclohexyl-2-methyl-5-oxo-6-[N^α -(2S-(morpholino-N-carbonyloxy)-3-phenylpropionyl)-L-histidyl]amino heptane] | 5.1 | – | – |
| CC(C)C[C@H](N=[N+]=[N-])[C@H](O)[C@H](CC1CCCCC1)NC(=O)[C@H](Cc1c[nH]cn1)NC(=O)[C@H](Cc1ccccc1)NC(=O)N1CCOCC1 [Compound V-4, (4S, 5R, 6S)-4-Azido-7-cyclohexyl-5-hydroxy-2-methyl-6-[N^α -(N-(morpholino-N-carbonyl)L-phenylalanyl)-L-histidyl]aminoheptane] | 0.58 | – | – |
| COc1ccc(C[C@H](NC(=O)CC(C)(C)N)C(=O)N[C@@H](Cc2cnc[nH]2)C(=O)N[C@@H](CC2CCCCC2)[C@@H](O)[C@@H](O)CC(C)C)cc1 [Compound A-64662] | – | – | orally active in animals |
| COCCOCCN(C)C(=O)C[C@@H](Cc1ccccc1)C(=O)N[C@@H](Cc1c[nH]cn1)C(=O)N[C@@H](CC1CCCCC1)[C@@H](O)[C@H](CC(C)C)N=[N+]=[N-] [XI-2] | 0.008 | – | – |
| CC(C)C[C@H](N=[N+]=[N-])[C@H](O)[C@H](CC1CCCCC1)NC(=O)[C@H](Cc1c[nH]cn1)NC(=O)[C@H](Cc1ccccc1)OC(=O)N1CCOCC1 [IV-7, (4S, 5R, 6S)-4-Azido-7-cyclohexyl-5-hydroxy-2-methyl-6-[N^α -(2S-(morpholino-N-carbonyloxy)-3-phenylpropionyl)-L-histidyl]aminoheptane] | 1.7 | Reduction in blood pressure was seen within approximately 1 to 6 hours | – |

Reference: patent publication US5268361A, “Hydroxyazido derivatives and related compounds as renin inhibitors” (SRI International, priority 1991, dated 1993)
